Experimental data published in patent publication US6673902B2, “Cyclin D binding factor, and uses thereof” (St. Jude Children's Research Hospital, priority 1996, dated 2004).

Assays:
D-type cyclins = test: Co-expression with D-type cyclins in Sf9 cells and co-precipitation; assay type: binding, mouse
Description: BamHI linkers are added to an XbaI-EcoRV cDNA fragment containing the entire DMP1 coding sequence, and the fragment is inserted into the BamHI site of the pAcYM1 baculovirus vector (37). Production of virus and infection of Spodoptera frugiperda (Sf9) cells are performed as previously described (23). For preparation of radiolabeled cell lysates, cells infected with the indicated recombinant viruses encoding DMP1, CDKs, and/or cyclins are metabolically labeled 40 hours post-infection for 8 additional hours with 50 uCi/ml of [^35S]methionine (1000 Ci/mmol; ICN, Irvine Calif.) in methionine-free medium or for 4 additional hours with 250 uCi/ml of carrier-free ^32P-orthophosphate (9000 Ci/mmol, Amersham) in phosphate-free medium. Cells suspended in 0.25 ml Kinase buffer containing protease and phosphatase inhibitors [2.5 mM EGTA, 0.1 mM phenylmethyl sulfonylfluoride (PMSF), 2% aprotinin, 1 mM β-glycerophosphate, 0.1 mM Na3VO4, and 0.1 mM NaF] are lysed by repeated freezing and thawing and clarified by centrifuigation. […]
We next co-expressed full length DMP1 together with D-type cyclins under baculovirus vector control in insect Sf9 cells. […] Electrophoretic separation of unfractionated metabolically labeled lysates from infected cells enabled direct autoradiographic visualization and relative quantitation of the recombinant mouse proteins (FIG. 3A). […]

GST-Ets2 fusion protein = target: T1, GST-Ets2 fusion protein (Homo sapiens, UniProt P15036); test: EMSA competition with bacterial GST-Ets2 fusion protein; assay type: binding; details: excess unlabeled oligonucleotide
T1 construct: made in house; host or cells: bacteria
T1 sequence (P15036 363-443 limits assumed): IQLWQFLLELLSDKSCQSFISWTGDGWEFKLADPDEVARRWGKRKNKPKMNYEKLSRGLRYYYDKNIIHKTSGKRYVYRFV
Description: Double-stranded oligonucleotides containing potential DMP1 binding sites (BS1 and BS2) and mutated versions (M1-M4) (FIG. 5B) are end-labeled with ^32P using the Klenow fragment of DNA polymerase and α-^32P-dATP (6000 Ci/mmol; Dupont NEN) (8). Nuclear extracts from mouse NIH-3T3 or CTLL cells are prepared with buffer containing 0.4 M NaCl (2). Mammalian cell extracts (15 μg protein) or Sf9 lysates (corresponding to 5×10^2 infected cells) containing ˜4 ng recombinant DMP1 are mixed with 3 ng of ^32P-labeled probe (1×10^5 cpm) in 15 ul Binding buffer containing 2.5 μg of poly(dI-dC) and 2.5 μg BSA and incubated at 4° C. for 30 minutes. For competition experiments, the indicated amounts of unlabeled oligonucleotides are added to the reactions before addition of the labeled probe. In some experiments, a bacterially produced GST-Ets2 fusion protein containing the complete Ets2 DNA-binding domain (10) is used in place of Sf9 extracts containing recombinant DMP1. Protein-DNA complexes are separated on nondenaturing 4% polyacrylamide gels as described (8). Where indicated, antiserum to DMP1 together with 2.5 μg salmon testis DNA (Sigma; used to reduce nonspecific DNA binding activity caused by serum addition) is preincubated with extracts for 30 minutes at 4° C. prior to initiation of binding reactions. Immune complexes are either removed by adsorption to protein A-Sepharose beads (immunodepletion experiments) or are allowed to remain (“supershift” experiments).
Using electrophoretic mobility shift assays (EMSA) performed after mixing a titrated excess (3 ng) of ^32P-end labeled BS1 probe with Sf9 lysates producing DMP1 (˜4 ng recombinant protein per reaction), a BS1-containing protein complex is detected that was competed with an excess of unlabeled BS1 oligonucleotide but not with mutant oligonucleotides M1 and M2 (FIG. 6A). […] More subtle mutations within this region may be tolerated, because high concentrations of M4 competed for BS1 binding to both Ets2 and DMP1 in subsequent studies (FIG. 5B and see below). DMP1 also binds a BS2 probe, and the binding is competed by excess BS2 or BS1 (FIG. 6B). In agreement with the site selection frequencies (FIG. 5A), binding of ^32P-BS1 under equivalent conditions was competed more efficiently by excess unlabeled BS1 than by BS2 (FIG. 6B). […] In agreement, Ets2 binding to BS1 could be competed with excess unlabeled BS1 and M3, but not by BS2 (FIG. 6C). Therefore, although both DMP1 and Ets2 can each bind to BS1 sequences, their exclusive interactions with BS2 and M3, respectively, help to distinguish DMP1 and Ets binding activities (summarized in FIG. 5B).

| competition for BS1 binding to Ets2 (GST-Ets2 fusion protein) | Substance | DMP1 molecules forming stable complexes with D-type cyclins (D-type cyclins; coexpressed in Sf9 cells) [%] | cyclin stably bound (D-type cyclins; coinfected Sf9 cells, approximately equivalent levels of protein and cyclin D2 or cyclin D3) |
| --- | --- | --- | --- |
|  | DMP1: murine cyclin D-associated myb-like transcription factor, 761 amino acids, SEQ ID NO:1 | ≤ 15 | 5-15% |
| competed | M3: DMP1 deletion mutant (NcoI), amino acids 1-458 of SEQ ID NO:1 |  |  |
